Test results taken from US20050095240A1, “NaCT as a target for lifespan expansion and weight reduction” (Medical College of Georgia Research, priority 2002, published 2005).

Key:
[1] = biological target: Phe→Leu mutant of human NaCT (Homo sapiens, UniProt Q86YT5, F500L); assay: Citrate uptake via Phe→Leu mutant of human NaCT in HRPE cells; type: cell-based
mouse NaCT = biological target: T1, mouse NaCT (Mus musculus, UniProt Q67BT3); assay: Mouse NaCT in X. laevis oocytes, two-microelectrode voltage clamp; type: cell-based; conditions: 0.5 mM citrate; three oocytes; −50 mV
T1 sequence (Q67BT3 1-572): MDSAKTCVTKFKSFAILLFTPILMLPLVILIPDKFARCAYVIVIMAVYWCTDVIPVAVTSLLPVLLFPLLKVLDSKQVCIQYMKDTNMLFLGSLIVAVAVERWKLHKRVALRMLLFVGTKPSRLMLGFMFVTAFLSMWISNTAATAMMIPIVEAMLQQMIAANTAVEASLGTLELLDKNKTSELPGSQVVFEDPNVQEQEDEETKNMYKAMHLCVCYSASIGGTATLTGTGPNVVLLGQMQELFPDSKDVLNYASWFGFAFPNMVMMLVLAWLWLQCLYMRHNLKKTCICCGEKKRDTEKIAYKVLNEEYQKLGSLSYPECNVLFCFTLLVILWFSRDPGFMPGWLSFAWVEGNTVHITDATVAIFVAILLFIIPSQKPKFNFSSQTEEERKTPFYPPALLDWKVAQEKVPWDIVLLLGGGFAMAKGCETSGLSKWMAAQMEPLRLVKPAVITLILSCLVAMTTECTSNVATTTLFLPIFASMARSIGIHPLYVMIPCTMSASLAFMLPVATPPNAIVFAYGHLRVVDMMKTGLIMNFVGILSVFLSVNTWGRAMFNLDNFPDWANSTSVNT
Experimental: Functional expression of mouse and rat NaCTs in Xenopus laevis oocytes. Capped cRNA from the cloned mouse NaCT cDNA was synthesized using the mMESSAGE mMACHINE kit (Ambion Inc., Austin, Tex., USA). In some experiments, rat NaCT of Example 2 was used for functional expression. […] On the following day, oocytes were injected with 50 ng cRNA. Water-injected oocytes served as controls. The oocytes were used for electrophysiological studies 4-6 days after cRNA injection. Electrophysiological studies were performed by the two-microelectrode voltage-clamp method (Hatanaka et al., J. Clin. Invest. (2001);107: 1035-1043 and Nakanishi et al., J. Physiol. (2001);532: 297-304). […] The membrane potential was clamped at −50 mV. […] The oocytes were perifused with 50 μM [^14C]-citrate or 50 μM succinate (unlabeled plus radiolabeled succinate) and inward currents were monitored over a period of 10 min. […] The area within the curve describing the relationship between the time and inward current was integrated to calculate the charge transferred into the oocyte during incubation with citrate or succinate. The values for substrate transport and charge transfer were used to determine the charge-to-substrate ratio.

rat NaDC3 = biological target: T2, rat NaDC3 (Rattus norvegicus, UniProt Q9Z0Z5); conditions: medium with 135 μM citrate and 40 μM succinate
T2 sequence (Q9Z0Z5 1-600): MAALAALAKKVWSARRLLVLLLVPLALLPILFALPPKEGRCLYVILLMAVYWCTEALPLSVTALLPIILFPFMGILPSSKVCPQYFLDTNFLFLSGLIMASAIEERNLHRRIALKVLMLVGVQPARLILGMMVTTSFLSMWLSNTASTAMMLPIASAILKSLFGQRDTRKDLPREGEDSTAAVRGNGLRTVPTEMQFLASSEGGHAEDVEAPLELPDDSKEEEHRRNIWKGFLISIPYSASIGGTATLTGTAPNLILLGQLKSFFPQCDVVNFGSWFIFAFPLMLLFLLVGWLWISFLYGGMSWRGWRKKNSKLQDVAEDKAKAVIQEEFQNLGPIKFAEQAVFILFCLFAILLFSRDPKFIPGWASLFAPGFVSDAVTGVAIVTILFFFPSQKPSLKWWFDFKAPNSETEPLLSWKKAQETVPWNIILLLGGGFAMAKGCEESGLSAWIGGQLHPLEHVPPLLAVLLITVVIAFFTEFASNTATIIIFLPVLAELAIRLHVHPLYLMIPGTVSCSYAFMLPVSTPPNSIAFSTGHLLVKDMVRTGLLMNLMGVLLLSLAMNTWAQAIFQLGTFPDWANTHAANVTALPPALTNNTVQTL

NaDC3 = conditions: cited from earlier work
hNaDC3 = biological target: T3, hNaDC3 (Homo sapiens, UniProt Q8WWT9); conditions: read-out: Km for succinate, hNaDC3; as determined by Wang et al.; cited from earlier work
T3 sequence (Q8WWT9 1-602): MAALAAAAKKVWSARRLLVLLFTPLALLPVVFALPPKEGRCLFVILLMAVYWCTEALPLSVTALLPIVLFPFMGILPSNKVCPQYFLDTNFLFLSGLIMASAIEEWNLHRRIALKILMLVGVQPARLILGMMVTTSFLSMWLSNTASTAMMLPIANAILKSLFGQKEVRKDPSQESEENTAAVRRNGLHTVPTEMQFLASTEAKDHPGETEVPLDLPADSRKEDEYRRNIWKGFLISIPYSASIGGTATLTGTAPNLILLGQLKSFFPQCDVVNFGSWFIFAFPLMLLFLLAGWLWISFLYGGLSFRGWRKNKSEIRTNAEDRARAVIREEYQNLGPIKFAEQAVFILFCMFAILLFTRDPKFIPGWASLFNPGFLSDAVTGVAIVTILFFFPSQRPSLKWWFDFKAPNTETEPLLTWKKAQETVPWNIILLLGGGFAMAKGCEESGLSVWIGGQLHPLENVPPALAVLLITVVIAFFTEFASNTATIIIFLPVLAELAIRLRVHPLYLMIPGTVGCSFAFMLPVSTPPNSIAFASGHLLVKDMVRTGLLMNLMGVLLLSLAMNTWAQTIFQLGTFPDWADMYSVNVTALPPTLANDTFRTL

Phe→Leu mutant of human NaCT, sequence (Q86YT5 whole entry F500L): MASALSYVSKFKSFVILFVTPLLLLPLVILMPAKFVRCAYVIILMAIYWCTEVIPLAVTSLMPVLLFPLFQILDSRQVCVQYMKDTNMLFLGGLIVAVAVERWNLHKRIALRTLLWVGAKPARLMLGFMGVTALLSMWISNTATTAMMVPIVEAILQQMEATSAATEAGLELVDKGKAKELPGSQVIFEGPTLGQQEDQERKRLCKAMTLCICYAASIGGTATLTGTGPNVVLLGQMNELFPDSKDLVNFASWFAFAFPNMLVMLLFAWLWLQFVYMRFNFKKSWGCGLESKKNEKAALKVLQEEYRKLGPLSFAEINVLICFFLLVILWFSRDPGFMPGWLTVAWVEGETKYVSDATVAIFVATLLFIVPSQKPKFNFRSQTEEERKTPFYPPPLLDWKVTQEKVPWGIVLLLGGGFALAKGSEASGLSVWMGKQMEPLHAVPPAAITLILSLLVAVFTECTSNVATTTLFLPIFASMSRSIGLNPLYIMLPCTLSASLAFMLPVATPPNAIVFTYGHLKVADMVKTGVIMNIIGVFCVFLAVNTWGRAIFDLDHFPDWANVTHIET

| Compound | Increase in substrate affinity of mutant vs wild type [1] [fold] | Kt for citrate, Phe→Leu mutant [1] [µM] | Citrate-induced inward current (mouse NaCT) [nA] | Succinate uptake at physiological concentrations (rat NaDC3) [nmol/10^6 cells/minute] | Michaelis-Menten constant for succinate, NaDC3 (NaDC3) [µM] | Km (hNaDC3) [µM] |
| --- | --- | --- | --- | --- | --- | --- |
| O=C(O)CC(O)(CC(=O)O)C(=O)O [Citrate] | 7 | 78 ± 8 | 30±7 |  |  |  |
| O=C(O)CCC(=O)O [Succinate, succinate] |  |  |  | 0.48±0.01 | 2 to 50 | 20 ± 1 |
